Results on one compound are retold here after paper PMC5665643, “CHIP as a membrane-shuttling proteostasis sensor” (eLife, 2017).

The test system of one assay is PI4KIII. The note with it: at higher concentrations; ref Nakanishi et al., 1995; cited from earlier work.
For assay [1], the system named is EGFP-CHIP-K30A; type III phosphatidylinositol-4 kinases (PI4KIII). Put plainly: Undocking of EGFP-CHIP-K30A from membranes by PI4KIII inhibitors. The format is cell-based, murine. The note with it: same cells followed upon addition of inhibitor; ***p<0.001, t-test; N = 3. An excerpt: Phospholipase D inhibitors FIPI, VU0155069 and CAY10594 were purchased from Caymen Chemicals (Ann Arbor, MI), wortmannin from Enzo (Farmingdale, NY), PI4KIIIβ inhibitor IN-10 from MedChem Express (Monmouth Junction, NJ), HSP70 inhibitor VER-155008 from Sigma-Aldrich (St. Louis, MO), HSP90 inhibitor 17-(Allylamino)−17-demethoxygeldanamycin (17-AAG) from Biomol (Germany). 1,2-dioleoyl-sn-glycero-3-phosphocholine (DOPC) and 1,2-dipalmitoyl-sn-glycero-3-phosphate (phosphatidic acid, PA) were from Avanti Polar Lipids (Alabaster, AL), 1,2-dipalmitoyl-sn-glycero-3-phosphoinositol-4-phosphate (phosphadtidylinositol-4-phosphate, PI4P) was from Echelon Bioscience (Salt Lake City, UT). All other chemicals were from Sigma-Aldrich if not indicated otherwise. […]
For microscopy analysis of CHIP localization, samples were not fixed. […] For quantification, fields of view were chosen randomly. […]
Membrane localization and Golgi morphology were analyzed manually using ImageJ from following numbers of cells (average of at least three independent experiments): 92 (Figure 1a), 142 (Figure 1d), 90 (Figure 1—figure supplement 1b), 125 (Figure 1—figure supplement 1c), 149 (Figure 1—figure supplement 1d), 84 (Figure 3c), 130 (Figure 5a), 206 (Figure 5g), 240 (Figure 5h), 93 (Figure 5—figure supplement 1d), and 137 (Figure 5—figure supplement 1j). […]

Turning to `COC[C@H]1OC(=O)c2coc3c2[C@@]1(C)C1=C(C3=O)[C@@H]2CCC(=O)[C@@]2(C)C[C@H]1OC(C)=O` [wortmannin], the PI4KIII inhibition result in the assay with PI4KIII is “inhibits PI4KIII if used at higher concentrations”. In addition, the “undocking of EGFP-CHIP-K30A from cellular membranes, wortmannin” value in assay [1] is listed as “causes an acute undocking of EGFP-CHIP-K30A from cellular membranes”.
